Read-outs that look alike come from different tables or passages of the source.
Test system: male Wistar rats
Experimental: In order to check its activity, diguanido-II was dissolved in a 0.9 % sodium chloride solution and administered through "rapid" i.v. route in male Wistar rats, under general anaesthesia obtained by means of 10% ethyl urethan (i ml/hg).
The active ingredients called guanido-III, -IV, -V, as well as agmatine and galegine, were also tested, after having been administered through "rapid" i.v. route in male Wistar rats (weighing average 280±5 g) under general anaesthesia obtained by means of 10% ethyl uretan (1 ml/hg, i.p.). The general experimental conditions were exactly the same as previously mentioned for guanido-I and diguanido-II, so that the cardiovascular and respiratory effects could be compared.
The parameters measured are as follows: systolic and diastolic systemic arterial pressure (AP), heart rate (HR), maximum rate of increase in the left ventricular isovolumetric pressure (dp/dt), respiratory frequency (RF) and tidal volume (TV). The doses (in μg/kg body weight, referred to the active substance) varied from 50 μg/kg to 6,400 μg/kg (ratio=2.0); in some cases higher does have been employed.

CC(C)=CCN=C(N)N [galegine, prenylguanidine, reference compound]
Δ AP DIAST (50 μg/kg i.v.): -19 ± 3 mmHg | Δ AP SYST (50 μg/kg i.v.): -18 ± 1 mmHg | Δ HR (50 μg/kg i.v.): -32 ± 6 beats/min | Δ RF (50 μg/kg i.v.): +38 ± 4% | Δ TV (50 μg/kg i.v.): +43 ± 4% | Δ dp/dt (50 μg/kg i.v.): +1498 ± 131 mmHg/sec | Δ AP DIAST (100 μg/kg i.v.): -28 ± 6 mmHg | Δ AP SYST (100 μg/kg i.v.): -22 ± 2 mmHg | Δ HR (100 μg/kg i.v.): -46 ± 7 beats/min | Δ RF (100 μg/kg i.v.): +68 ± 4% | Δ TV (100 μg/kg i.v.): +63 ± 5% | Δ dp/dt (100 μg/kg i.v.): +1712 ± 90 mmHg/sec | Δ AP DIAST (200 μg/kg i.v.): -29 ± 5 mmHg | Δ AP SYST (200 μg/kg i.v.): -23 ± 5 mmHg | Δ HR (200 μg/kg i.v.): -94 ± 6 beats/min | Δ RF (200 μg/kg i.v.): +69 ± 7% | Δ TV (200 μg/kg i.v.): +64 ± 7% | Δ dp/dt (200 μg/kg i.v.): +1797 ± 178 mmHg/sec | Δ AP DIAST (400 μg/kg i.v.): -26 ± 4 mmHg | Δ AP SYST (400 μg/kg i.v.): -25 ± 6 mmHg | Δ HR (400 μg/kg i.v.): -107 ± 4 beats/min | Δ RF (400 μg/kg i.v.): +76 ± 9% | Δ TV (400 μg/kg i.v.): +87 ± 9% | Δ dp/dt (400 μg/kg i.v.): +2568 ± 314 mmHg/sec | Δ AP DIAST (800 μg/kg i.v.): -26 ± 4 mmHg | Δ AP SYST (800 μg/kg i.v.): -27 ± 4 mmHg | Δ HR (800 μg/kg i.v.): -106 ± 11 beats/min | Δ RF (800 μg/kg i.v.): +70 ± 8% | Δ TV (800 μg/kg i.v.): +31 ± 3% | Δ dp/dt (800 μg/kg i.v.): +1926 ± 223 mmHg/sec | Δ AP DIAST (1600 μg/kg i.v.): -25 ± 4 mmHg | Δ AP SYST (1600 μg/kg i.v.): -22 ± 4 mmHg | Δ HR (1600 μg/kg i.v.): -85 ± 5 beats/min | Δ RF (1600 μg/kg i.v.): +133 ± 14% | Δ TV (1600 μg/kg i.v.): +55 ± 6% | Δ dp/dt (1600 μg/kg i.v.): +1724 ± 104 mmHg/sec | Δ AP DIAST (3200 μg/kg i.v.): -36 ± 4 mmHg | Δ AP SYST (3200 μg/kg i.v.): -22 ± 3 mmHg | Δ HR (3200 μg/kg i.v.): -98 ± 16 beats/min | Δ RF (3200 μg/kg i.v.): +85 ± 6% | Δ TV (3200 μg/kg i.v.): +40 ± 7% | Δ dp/dt (3200 μg/kg i.v.): +2996 ± 202 mmHg/sec | Δ AP DIAST (6400 μg/kg i.v.): -36 ± 2 mmHg | Δ AP SYST (6400 μg/kg i.v.): -18 ± 4 mmHg | Δ HR (6400 μg/kg i.v.): -42 ± 4 beats/min | Δ RF (6400 μg/kg i.v.): +37 ± 11% | Δ TV (6400 μg/kg i.v.): +29 ± 8% | Δ dp/dt (6400 μg/kg i.v.): +4494 ± 371 mmHg/sec | Δ AP DIAST (12800 μg/kg i.v.): -42 ± 3 mmHg | Δ AP SYST (12800 μg/kg i.v.): -22 ± 2.5 mmHg | Δ HR (12800 μg/kg i.v.): -15 ± 7 beats/min | Δ RF (12800 μg/kg i.v.): +23 ± 7% | Δ TV (12800 μg/kg i.v.): +25 ± 5% | Δ dp/dt (12800 μg/kg i.v.): +6420 ± 417 mmHg/sec | Δ AP DIAST (25600 μg/kg i.v.): -30 ± 9 mmHg | Δ AP SYST (25600 μg/kg i.v.): -19 ± 3 mmHg | Δ HR (25600 μg/kg i.v.): -21 ± 6 beats/min | Δ RF (25600 μg/kg i.v.): -34 ± 12% | Δ TV (25600 μg/kg i.v.): -57 ± 8% | Δ dp/dt (25600 μg/kg i.v.): +6471 ± 274 mmHg/sec | Δ AP DIAST (51200 μg/kg i.v.): -50 ± 7 mmHg | Δ AP SYST (51200 μg/kg i.v.): -80 ± 8 mmHg | Δ HR (51200 μg/kg i.v.): -298 ± 19 beats/min | Δ RF (51200 μg/kg i.v.): -100% | Δ TV (51200 μg/kg i.v.): -100% | Δ dp/dt (51200 μg/kg i.v.): -4708 ± 312 mmHg/sec | death of the tested animals at extremely high doses (25,600 and 51,200 ug/kg i.v., rat): primary respiratory depression (reduction of RF and TV) and a subsequent arterial hypotension. bradycardia and decrease in the cardiac inotropism (dp/dt), with death of the tested animals

COc1ccc(C=CC(=O)NCCCCNC(=N)N)cc1OC [guanido-V, 4-[(3,4-dimethoxycinnamoyl)amino]butylguanldine]
Δ AP DIAST (200 μg/kg i.v.): 0 mmHg | Δ AP SYST (200 μg/kg i.v.): 0 mmHg | Δ HR (200 μg/kg i.v.): 0 beats/min | Δ RF (200 μg/kg i.v.): -7 ± 2% | Δ TV (200 μg/kg i.v.): -14 ± 4% | Δ dp/dt (200 μg/kg i.v.): -392 ± 21 mmHg/sec | Δ AP DIAST (400 μg/kg i.v.): -3 ± 1 mmHg | Δ AP SYST (400 μg/kg i.v.): -4 ± 2 mmHg | Δ HR (400 μg/kg i.v.): 0 beats/min | Δ RF (400 μg/kg i.v.): -3% | Δ TV (400 μg/kg i.v.): -13 ± 2% | Δ dp/dt (400 μg/kg i.v.): -384 ± 39 mmHg/sec | Δ AP DIAST (800 μg/kg i.v.): -6 ± 2 mmHg | Δ AP SYST (800 μg/kg i.v.): -5 ± 2 mmHg | Δ HR (800 μg/kg i.v.): 0 beats/min | Δ RF (800 μg/kg i.v.): -3 ± 2% | Δ TV (800 μg/kg i.v.): +12 ± 4% | Δ dp/dt (800 μg/kg i.v.): -430 ± 43 mmHg/sec | Δ AP DIAST (1600 μg/kg i.v.): -6 ± 2 mmHg | Δ AP SYST (1600 μg/kg i.v.): -8 ± 3 mmHg | Δ HR (1600 μg/kg i.v.): 0 beats/min | Δ RF (1600 μg/kg i.v.): -4 ± 1% | Δ TV (1600 μg/kg i.v.): +11 ± 3% | Δ dp/dt (1600 μg/kg i.v.): -642 ± 76 mmHg/sec | Δ AP DIAST (3200 μg/kg i.v.): -9 ± 3 mmHg | Δ AP SYST (3200 μg/kg i.v.): -10 ± 4 mmHg | Δ HR (3200 μg/kg i.v.): 0 beats/min | Δ RF (3200 μg/kg i.v.): +1 ± 1% | Δ TV (3200 μg/kg i.v.): +20 ± 6% | Δ dp/dt (3200 μg/kg i.v.): +684 ± 38 mmHg/sec | Δ AP DIAST (6400 μg/kg i.v.): -15 ± 4 mmHg | Δ AP SYST (6400 μg/kg i.v.): -11 ± 3 mmHg | Δ HR (6400 μg/kg i.v.): -14 ± 6 beats/min | Δ RF (6400 μg/kg i.v.): +10 ± 4% | Δ TV (6400 μg/kg i.v.): +22 ± 7% | Δ dp/dt (6400 μg/kg i.v.): +2354 ± 214 mmHg/sec | Δ AP DIAST (12800 μg/kg i.v.): -28 ± 4 mmHg | Δ AP SYST (12800 μg/kg i.v.): -23 ± 5 mmHg | Δ HR (12800 μg/kg i.v.): -49 ± 8 beats/min | Δ RF (12800 μg/kg i.v.): +11 ± 3% | Δ TV (12800 μg/kg i.v.): +74 ± 8% | Δ dp/dt (12800 μg/kg i.v.): +2996 ± 170 mmHg/sec | Δ AP DIAST (102400 μg/kg i.v.): -30 ± 5 mmHg | Δ AP SYST (102400 μg/kg i.v.): -24 ± 4 mmHg | Δ HR (102400 μg/kg i.v.): -67 ± 11 beats/min | Δ RF (102400 μg/kg i.v.): +6 ± 4% | Δ TV (102400 μg/kg i.v.): +79 ± 12% | Δ dp/dt (102400 μg/kg i.v.): +3040 ± 224 mmHg/sec | cardiovascular and respiratory effects (in words) (i.v., rat): systolic and diastolic arterial hypotension, more evident from the dose of 3,200 μg/kg on; bradycardia was observed starting from the dose of 6,400 μg/kg, a slight reduction of dp/dt and RF appeared up to the highest doses; TV showed a similar trend
